# Measured values published in patent publication US20090074885A1, “Reversible Hydrophobic Modification of Drugs for Improved Delivery to Cells” (Roche Madison Inc., priority 2003, published 2009).
# “Also recorded” adds a separate entry of the source. Where two headings read alike, the source gives them in different places.
# Experiments:
# [1] = tested on: Hepa 1-6 (mouse hepatoma) cells; test: In vitro cellular uptake by fluorescence microscopy, Hepa 1-6; type: cell-based; details: 0.150 μmol in 220 μl via mixing chamber, 30 sec exposure
# Procedure: In Vitro cellular uptake of PI, RRH-PI compounds, and IV evaluated by fluorescence measurements. PI and the RRH-prodrugs were tested for cellular uptake on several cell lines which included B16 (murine melanoma), Hepa 1-6 (mouse hepatoma), SK-OV-3 (also SKOV-3, human ovarian carcinoma), OVCAR-3 (human ovarian carcinoma), Jurkat (human T-lymphocyte), 293 (human embryonic kidney), and MC38 (mouse colon carcinoma) cells. Adherent cells were plated at 2.5×10^5 cells/well on 6-well plates 24 h prior to testing. The growth media was removed from individual wells and the drug/prodrug was immediately added to the well with the mixing chamber. Final drug/prodrug concentrations were 0.150 μmol in 220 μl total volume (20 μl OS, 200 μl ITG). After 30 sec the drug solution was removed (aspirated) and 2 ml complete media was added to the cells. Experiments conducted with prodrug that was hydrolyzed prior to application to the cells followed a similar protocol, however the combined solution obtained after passing through the mixing chamber was collected and allowed to sit at ambient temperature for 5 min prior to application on the cells. […] SYTOX Green (20 μl of 5 μM solution in 20 mM Hepes, pH 7.4) was added to the wells and the cells were examined. Each condition was repeated in 2 or 3 wells, and the cells were immediately examined by microscopy. Fluorescent microscopy studies were conducted with a three laser LSM 510 confocal microscope, an Axiovert S100 fluorescent microscope, or an Axioplan2 fluorescent microscope (all Zeiss) equipped with filter sets for the rhodamine fluorescence channel (λex=BP 450/12, λem=LP 590 nm filter set) and the fluorescein fluorescent channel (λex=BP 546/90, λem=LP 515 nm filter set). Imaging was performed with an AxioCam digital camera (Zeiss), with AxioVision imaging software (V 4.5, Zeiss). For all images, identical camera settings and exposure times were used on comparative sample and control images. Images were processed with Photoshop (Adobe) for level and brightness using identical settings between sample and control images.
# [2] = tested on: SK-OV-3 (human ovarian carcinoma) cells; test: In vitro cellular uptake by fluorescence microscopy, SK-OV-3; type: cell-based; details: for PI positive cells: 0.150 μmol in 220 μl via mixing chamber, 30 sec exposure; for PI positive cells, prodrug premixed with ITG: premixed with ITG (5 min) before application to the cells
# Procedure: In Vitro cellular uptake of PI, RRH-PI compounds, and IV evaluated by fluorescence measurements. […] Adherent cells were plated at 2.5×10^5 cells/well on 6-well plates 24 h prior to testing. The growth media was removed from individual wells and the drug/prodrug was immediately added to the well with the mixing chamber. […] After 30 sec the drug solution was removed (aspirated) and 2 ml complete media was added to the cells. Experiments conducted with prodrug that was hydrolyzed prior to application to the cells followed a similar protocol, however the combined solution obtained after passing through the mixing chamber was collected and allowed to sit at ambient temperature for 5 min prior to application on the cells. Experiments conducted with Calcein AM (Invitrogen, 100 μl of 20 μM solution in complete media) followed a similar protocol for drug treatment (4 min treatment). Experiments conducted with SYTOX Green (Invitrogen) followed a similar protocol for drug treatment. […] Each condition was repeated in 2 or 3 wells, and the cells were immediately examined by microscopy. Fluorescent microscopy studies were conducted with a three laser LSM 510 confocal microscope, an Axiovert S100 fluorescent microscope, or an Axioplan2 fluorescent microscope (all Zeiss) equipped with filter sets for the rhodamine fluorescence channel (λex=BP 450/12, λem=LP 590 nm filter set) and the fluorescein fluorescent channel (λex=BP 546/90, λem=LP 515 nm filter set). Imaging was performed with an AxioCam digital camera (Zeiss), with AxioVision imaging software (V 4.5, Zeiss). For all images, identical camera settings and exposure times were used on comparative sample and control images. Images were processed with Photoshop (Adobe) for level and brightness using identical settings between sample and control images. For experiments conducted with IV, the cells were plated on 6-well plates with cover slips. […] Imaging was conducted on an Axioplan2 fluorescent microscope (Zeiss) and the same fields were imaged with phase contrast illumination, in the rhodamine fluorescence channel (λex=BP 450/12, λem=LP 590 nm filter set), and in the fluorescein fluorescent channel (λex=BP 546/90, λem=LP 515 nm filter set). IV was also mixed with PI and then delivered to SK-OV-3 cells, and the cells were imaged as before. In one protocol, equal amounts of IV (15.0 mM in DMSO) and PI (15.0 mM in DMSO) were combined and the resulting solution was added to cells via the mixing chamber. In a second method, PI was taken up in the ITG solution (0.748 mM) and mixed with IV (7.48 mM in DMSO) in the mixing chamber. […] The cells were imaged as before following 30 sec-4 min exposure to the drug solution.
# [3] = tested on: SK-OV-3 (human ovarian carcinoma); test: WST cytotoxicity assay, SK-OV-3; type: cell-based; details: SK-OV-3, 4 min drug exposure, read-out: Mean IC50
# Procedure: Antiproliferative/Cytotoxic in vitro studies on PI, RRH-PI prodrugs, melphalan, and C12PMMA-melphalan. In vitro cytotoxicity testing was conducted on Hepa 1-6 (mouse hepatoma), SK-OV-3 (human ovarian carcinoma), and MC38 (mouse colon carcinoma) cells using a tetrazolium based assay (WST, Dojindo Molecular Technologies). For the WST assay, Hepa 1-6 (2.0×10^5 cells well), SK-OV-3 (7.5×10^5 cells well), and MC38 (8.5×10^5 cells well) were seeded in 1000 μL media into 12-well plates 24 h prior to testing (starting confluency ˜50%). Following removal of media, drug/prodrug solution was added drop-wise to quadruplicate wells, using the mixing chamber. Effective drug concentrations were calculated from the amount of drug added in the total volume of OS and aqueous solution. Following 4 min of drug solution exposure, the solution was removed, and 1000 μl fresh complete media was added to each well. After the cells were incubated for 24-48 h, WST-1 (20 μl of a 5 mM solution in PBS) and N-methylphenazonium methyl sulfate (PMS, 20 μl 0.2 mM solution in PBS) were added and the cells were incubated for 1-4 h. For testing with MC38 cells, the amounts of WST-1 and PMS were doubled. Following incubation, 100 μl of sample was transferred to quadruplicate wells on a 96-well plate, and the absorbance (438 nm) values were measured on a SPECTRAmax Plus^384 microplate spectrophotometer (Molecular Devices Corporation). Data represents the mean A438 values of 16 wells with standard deviation, corrected for media contribution, and normalized against cells in media with no drug/prodrug treatment (reported as % cell viability±standard deviation).
# The concentration of drug (μM) that is required for 50% inhibition in vitro is reported as the IC50. The reported values were calculated from the best fit line (Excel) for a plot of effective drug concentration against % cell viability, and include the r^2 value. The reported IC50 values for multiple RRH-PI plots are reported as IC50 (μM)±standard deviation.
# [4] = tested on: cells exposed to the peritoneal cavity; test: IP application to normal mice, confocal microscopy; type: in vivo, mouse; details: 10-60 min
# Procedure: For evaluation of prodrug delivery to exposed tissues in the peritoneum, we tested IP application of propidium iodide, BDMSODS-PI, and C12PMMA-PI to both normal mice and in a mouse model of disseminated peritoneal ovarian cancer. All procedures were executed under Isoflurane inhalation anesthesia. In normal mice either the abdominal cavity was opened and the drug mixture was directly applied on abdominal organs (220 μL of drug-OS/ITG over 30 sec), or the drug mixture was injected through the abdominal wall (1 mL of drug-OS/ITG over 1 min). For both delivery protocols, the dual pump mixing chamber was used. After 10-60 min, the animals were euthanized and tissues were harvested, frozen, sectioned, stained with ToPro-3 and Phalloidin Alexa 488, and examined by laser confocal microscopy.
# MC38 liver metastases = test: Liver arterial bolus injection (LABI) in mice with MC38 liver metastases; type: in vivo, C57BL mice; details: for PI staining of MC38 liver metastases: hepatic artery (LABI) delivery
# [5] = tested on: MC38 metastases and hepatic cells; test: Portal vein injection in tumor-bearing mice; type: in vivo, mouse
# Procedure: For intraportal injections both the portal vein and the celiac artery were clamped to occlude blood flow into the liver. In other experiments, the portal vein and the celiac artery were not clamped, preserving full portal blood flow during the experiment. In all cases, the vena cava was not clamped in order to avoid increased pressure within the liver during the injection procedure. For experiments with occluded blood flow, the blood in the liver was flushed out with 1 ml of ITG delivered through the portal vein (1 min). Then 0.300 μmol of PI or II in 40 μl of DMF was delivered together with 400 μl of ITG via the mixing chamber. Five min after injection the livers were perfused with 3 ml of ITG to flush any drug remaining in the vasculature, and livers were sectioned as above or the hepatocytes were isolated.
# [6] = tested on: various tissues of normal mice; test: Propidium iodide delivery to a variety of target cells by injection or topical administration; type: in vivo, mouse
# Procedure: Propidium iodide delivery to a variety of target cells. […] All biliary and gall bladder arteries, as well as bladder epithelium also stained (FIG. 14B). […] During injection time the common carotid artery was temporary occluded. After injection the blood flow was restored and animals sacrificed 5 min later. […] After three weeks, mice were injected with modified PI. […] Injection was performed using similar 35 G needle into right ureter close to the bladder. […] Clamps were then released and 5 min later animals were sacrificed. The intestine lumen was flushed with 1 ml of ITG and analyzed as described above.
# [7] = portal vein and celiac artery clamped (occluded blood flow)
# [8] = intestinal intra lumen application, 100 μg
structure (smiles),measurement,setting,value
"CCCCCCCCCCCCCCCCCC[Si](C)(C)Nc1ccc2c(c1)c(-c1ccccc1)[n+](CCC[N+](C)(CC)CC)c1cc(N[Si](C)(C)CCCCCCCCCCCCCCCCCC)ccc21.[I-].[I-] [II, 3,8-bis[((dimethyl)octadecylsilazyl)amine] 5-(3,3-diethyl-3-methylammoniumpropyl) 6-phenyl phenanthridinium diiodide]",staining of cells (PI positive),[1],strong nuclear staining in all of the cells
same,PI positive cells,[2],nearly all of the cells being PI positive
same,"PI positive cells, prodrug premixed with ITG",[2],very few PI positive cells
same,"PI positive cells, prodrug premixed with ITG",[2]; listed as BDMODS-PI,did not show PI positive staining
same,IC50,[3]; WST 24 h after,194 µM
same,IC50,[3]; WST 48 h after,257 µM
same,nuclear labeling of peritoneal tissues,[4],near-exclusive PI^+-staining of cells exposed to the peritoneal cavity
same,cells PI positive in liver parenchyma region,"MC38 liver metastases; LABI, confocal counting",1%
same,cells PI positive in portal vein region,"MC38 liver metastases; LABI, confocal counting",23%
same,cells PI positive in MC38 metastases,"MC38 liver metastases; LABI, confocal counting, average of five images",94%
same,"PI positive cells in other organs (heart, lung, spleen, and kidneys)",MC38 liver metastases; after LABI,No PI positive cells were observed in any other organ examined
same,total number of PI positive non tumor cells in the liver,MC38 liver metastases; estimated from region counts,2-3%
same,PI staining of MC38 liver metastases,MC38 liver metastases,strong nuclear staining of the metastases
same,PI staining of MC38 liver metastases,MC38 liver metastases; listed as BDMODS-PI,"intense, near-exclusive PI-staining of MC38 liver metastases; also recorded: strongly labeled with PI; also recorded: nearly all cells labeled"
same,PI labeling after portal vein injection,[5]; [7],"prominent labeling of portal structures and adjacent cells, including hepatocytes, but not of the metastases"
same,PI labeling after portal vein injection,[5]; preserved portal blood flow,all metastases were PI-negative
same,PI labeling after portal vein injection,"[5]; preserved portal blood flow, listed as BDMODS-PI",No labeled cells in MC38 metastases
same,nuclear staining,[6]; injection into bile duct of normal mouse liver,strong nuclear staining of all bile duct epithelial cells
same,nuclear staining,[6]; injection into emptied bladder,strong staining of bladder transitional epithelium
same,nuclear staining,[6]; injection into hepatic artery of normal mouse liver,strong nuclear staining of hepatic artery endothelial and smooth-muscle cells
same,nuclear staining,[6]; injection into right carotid artery,strong staining of brain endothelial cells
same,nuclear staining,[6]; injection into the ureter,strong staining of ureter transitional epithelium nuclei
same,nuclear staining,[6]; injection into unclamped portal vein with preserved blood flow,strong nuclear staining of portal vein cells only
same,nuclear staining,[6]; [8],strong labeling of all enterocyte nuclei
same,nuclear staining,[6]; portal vein clamped during injection,propidium iodide staining was observed in a majority of hepatocytes
"CCCCCCCCCCCCNC(=O)CCC(=CCC(=O)O)C(=O)Nc1ccc2c(c1)c(-c1ccccc1)[n+](CCC[N+](C)(CC)CC)c1cc(NC(=O)C(=CCC(=O)O)CCC(=O)NCCCCCCCCCCCC)ccc21.[I-].[I-] [III, 3,8-bis-[2-(2 carboxyethylidene)-4-(dodecarbamoyl)-1-oxo-butylamine] 5-(3,3-diethyl-3-methylammoniumpropyl) 6-phenyl phenanthridinium diiodide]",staining of cells (PI positive),[1],paralleled the results obtained with II
same,PI positive cells,[2],paralleled the results obtained with II
same,nuclear labeling of peritoneal tissues,[4],near-exclusive PI^+-staining of cells exposed to the peritoneal cavity
same,PI staining of MC38 liver metastases,MC38 liver metastases,paralleled the results detailed with II
"CC[N+](C)(CC)CCC[n+]1c(-c2ccccc2)c2cc(N)ccc2c2ccc(N)cc21.[I-].[I-] [PI, Propidium iodide, reference compound]",staining of cells (PI positive),[1],stained very few cells
same,PI positive cells,[2],small percentage of PI positive cells
same,PI positive cells,[2]; listed as propidium iodide,stained very few cells
same,IC50,[3]; WST 24 h after,> 1250 µM
same,IC50,[3]; WST 48 h after,> 1700 µM
same,nuclear labeling of peritoneal tissues,[4],extremely rare nuclear labeling
same,PI staining of MC38 liver metastases,MC38 liver metastases,greatly decreased number of PI positive cells within the MC38 metastases
same,PI staining of MC38 liver metastases,MC38 liver metastases; listed as unmodified PI,Few MC38 metastases labeled
same,nuclear staining after portal vein injection,[5]; 400 μl into portal vein of liver with MC38 metastases,did not result in nuclear staining of any structures
same,PI labeling after portal vein injection,[5]; [7],a few labeled cells
same,nuclear staining,[6]; injection into any vessel or bile duct of normal liver,little to no nuclear staining
same,nuclear staining,[6]; [8],PI staining was observed in a few intestinal villi cells
